From patent US20080051451A1, “Autoimmune conditions and NADPH oxidase defects” (priority 2006, published 2008)
Entries after “also recorded” stand apart in the source; their conditions may differ.

Tests used:
[1] = Arthritogenicity / arthritis effect (general statement); type: in vivo; conditions: general statement in Example 3
HL-60 cells = test: Oxidative burst assay of granulocytes in vitro (isoluminol, extra-cellular ROS); conditions: HL-60 differentiated to granulocytes, 50 minutes, 37° C.
Description: The human myeloma cell line HL-60 (ATCC, CCI-240) was cultured in D-MEM (Gibco, Paisley, UK) complemented with 10% fetal calf serum and Penicillin-Streptomycin. […] Before assaying the cells were washed and resuspended in PBS to a concentration of 10^7 cells/ml.
Briefly, 5 μl of resuspended oils were added into 96-well plates containing 5×10^5 cells/well in a total volume of 200 μl PBS/well (final concentration isoluminol 50 μg/ml; Sigma Aldrich) and horse radish peroxidase (type II 2,5 U/ml; Sigma Aldrich). Samples were gently mixed and the data collection was initiated immediately. Extra-cellular ROS production was followed at 37° C. as produced luminescence signal (FluoStar Optima, BMG Labtechnologies, Offenburg, Germany) and presented as maximal relative signal during a measurement period of 50 minutes.
The cells were differentiated to granulocytes by culture in presence of 1,25% dimethylsulfoxide (DMSO; Sigma Aldrich Inc., Milwaukee, Wis.) for six days.

NADPH oxidase = test: Oxidative burst response to PMA in spleen granulocytes after s.c. injection in vivo; parameters: species or system Rat (Rattus norvegicus); conditions: spleen granulocytes 5 days after s.c. injection (200 μl) in DA.Ncf1^DA rats, PMA stimulation, compared to naive DA.Ncf1^DA and DA.Ncf1^E3
Description: The term DA.Ncf1^DA rats designates DA rats carrying the Ncf1 DA allele with impaired NADPH oxidase capacity and the term DA.Ncf1^E3 rats designates DA rats carrying the Ncf1^E3 allele with functional NADPH oxidase capacity (Olofsson & Holmdahl (2003) Scand J Immunol 58:155-164).
Oxidative burst response to PMA stimulation in vitro in spleen granulocytes taken 5 days after s.c. phytol injection in DA.Ncf1^DA rats (200 μl) compared to naive DA.Ncf1^DA and DA.Ncf1^E3 (n=5) (FIG. 3).

[2] = Biodistribution of 3H-labelled phytol; type: in vivo, Rat (Rattus norvegicus)
Description: DA rats originating from Harlan Netherlands (N=4 rats per group) injected with compound 1 (phytol) mixed with radiolabelled compound 1 (phytol) (Moravek Biochemicals, CA) to a total volume of […] at 167 μCi/rat with ^3H-Phytol. At sacrifice at day 2, 4, 8, 11 and 17, respectively, inguinal lymph nodes, spleen, heart, thymus, kidney, liver, lung, adipose tissue, muscle, injection site tissue and blood were collected in equal amount of saline solution in pre-weight tubes (blood with heparin to prevent coagulation). The tissues were homogenized and mixed with ready-safe scintillation liquid (Beckman Coulter, CA). Biodistribution was estimated as relative CPM per gram tissue.

DA.Ncf1^DA rats [3] = test: Pristane induced arthritis (PIA) in DA.Ncf1^DA rats; type: in vivo, Rat (Rattus norvegicus); conditions: for severity of PIA, therapeutic effect: 100 μl subcutaneous injections in the neck at day 8 and 10 after arthritis induction; for severity of PIA, oral administration in food 500 mg/kg/day: mixed in the food for continuous uptake; for severity of PIA, oral administration in food 1% daily: mixed in the food for daily uptake
Description: Treatments with compound 1 (phytol) or compound 5 (phytyl acetate) were administered to DA.Ncf1^DA rats as 100 μl subcutaneous injections in the neck at day 8 and 10 after arthritis induction (untreated control (◯), compound 1 (phytol) (♦) and compound 5 (phytyl acetate) (▴)) (FIG. 9).
Treatments with compound 2 (farnesol) or compound 4 (farnesylacetate) were administered to DA.Ncf1^DA rats as 100 μl subcutaneous injections in the neck at day 8 and 10 after arthritis induction, (untreated control (◯), compound 2 (farnesol) (▪) and compound 4 (farnesylacetate) (▴)) (FIG. 11).
Treatments with compound 1 (phytol), compound 6 (di-hydro-phytol, compound 5 (phytyl acetate), or compound 7 (di-hydro-phytyl acetate were administered to DA.Ncf1^DA rats as 100 μl subcutaneous injections in the neck at day 8 and 10 after arthritis induction, (untreated control (◯), compound 1 (phytol) (♦), compound 6 (di-hydro-phytol (▪), compound 5 (phytyl acetate) (▴) or compound 7 (di-hydro-phytyl acetate (●)) (FIG. 12).
Treatments of DA.Ncf1^DA rats with compound 1 (phytol) mixed in the food for continuous uptake compared with Omega3 fatty acids, (untreated control (◯), Omega3 fatty acid (□), phytol 1% daily (♦), phytol 1% every 2'nd day (▴), or phytol 1% initiated day 7 after arthritis induction (▪)) (FIG. 13).
Treatments of DA.Ncf1^DA rats with compound 5 (phytyl acetate) mixed in the food for daily uptake, (untreated control (◯), compound 1 (phytol) 1% daily (♦), or compound 5 (phytyl acetate) 1% daily (▴)) (FIG. 14).
Treatments with compound 1 (phytol) at 1.6 or 2.3 g/kg/day administered to DA.Ncf1^DA rats by oral gavage given by dosing every second day with compound 1 (phytol) […] (♦), compound 1 (phytol) […] (▴) or untreated control (◯).
Treatments of DA.Ncf1^DA rats with compound 1 (phytol) or compound 9 (isophytol) mixed in the food for continuous uptake compared with fenofibrate, (compound 1 (phytol) 500 mg/kg/day (♦), compound 9 (isophytol) 500 mg/kg/day (▴), or fenofibrate 100 mg/kg/day (□). Untreated control (◯).) (see FIG. 17).

DA.Ncf1^DA rats [4] = test: Collagen induced arthritis (CIA) with oil adjuvant; type: in vivo, Rat (Rattus norvegicus)
Description: Collagen induced arthritis (CIA) was induced by an s.c. injection of 100 μl of rat collagen type II (CII; 100 μg/rat-150 μg/rat), emulsified in incomplete Freund's adjuvant (IFA; Sigma Aldrich) (FIG. 7).
Effect of s.c. administration of phytol (200 μl) 5 days.
At day 27 after immunization, sera were taken and analyzed for anti-CII IgG levels (n=7). Titers are relative to pooled positive sera (units).

DA.Ncf1^DA rats [5] = test: Non oil collagen induced arthritis (NOCIA); type: in vivo, Rat (Rattus norvegicus)
Description: Non oil collagen induced arthritis (NOCIA) was induced by emulsifying rat CII (300 μg) in a mixture of LPS (50 μg; Sigma Aldrich), CPG (5′-TCCATGACGTTCCTGACGTT-3′; SEQ ID NO:1) (45 μg; MWG-Biotech AG, Ebersberg, Germany) and alum (6 mg; Sigma Aldrich) and injected s.c. in a total volume of 300 μl.
Preventive effect on arthritis of phytol injection (200 μl s.c.) five days prior to induction of NOCIA in DA.Ncf1^DA rats, (control (Δ) and compound 1 (phytol) (▴)).
Delayed type hypersensitivity (DTH) response is abrogated after compound 1 (phytol) injection (FIG. 8B). Day 67 after NOCIA immunization the immune system was challenged by an injection of CII in the ear. Following increase in ear volume was measured and compared to control ear (control n=7 and compound 1 (phytol) n=8).

DA.Ncf1^DA rats [6] = test: Experimental allergic encephalomyelitis (EAE) in vivo; parameters: species or system Rat (Rattus norvegicus); conditions: 200 μL injected at the base of the tail at day 0; scored 40 days; p<0.01 vs untreated control
Description: At day 0, all rats were treated (immunized) with 200 μL SCH (DA.Ncf1^DA spinal cord homogenate, to induce EAE) i.d. at the base of the tail. The rats were then scored according to the following scale for 40 days: • 0=Normal • 1=Tail weakness • 2=Tail paralysis • 3=Tail paralysis and mild […] • 4=Tail paralysis and severe […] • 5=Tail paralysis and paralysis of one limb • 6=Tail paralysis and paralysis of a pair of limbs • 7=Tetra-paresis • 8=Pre-morbid or dead. […] EAE began to appear around day 6.

DA.Ncf1^DA rats [7] = test: Pristane induced arthritis (PIA) in DA.Ncf1^DA rats; type: in vivo, Rat (Rattus norvegicus)
Lewis.IF rat = test: Pristane induced arthritis (PIA) in Lewis.IF rats; conditions: 200 μl s.c. 5 days before induction of PIA
Description: (§1) Disease was induced in all rats at the age of 6-12 weeks. Arthritis development was monitored with a macroscopic scoring system of the four limbs ranging from 0 to 15 (1 point for each swollen or red toe, 1 point for midfoot digit or knuckle, 5 points for a swollen ankle). The scores of the four paws were added yielding a maximum total score of 60 for each rat.
(§2) Therapeutic treatments were administered s.c. or intra peritoneal (i.p.; 200 μl) after onset of disease in the acute or chronic phase (FIG. 6).

[8] = system: Rats heterozygous for the functional Ncf1 (Ncf1^E3) allele with Pia3 locus; test: Pristane induced arthritis (PIA) in rats with a functional oxidative burst; conditions: injected i.p. (200 μl) at the estimated peak of disease
Description: as §1, §2

[9] = relative CPM per gram tissue, day 2, 4, 8, 11, 17

Question: Which arthritis ameliorating effects [1] does the source give for `CC(C)=CCC/C(C)=C/CC/C(C)=C/CC/C(C)=C/CO` [compound 3, 3,7,11,15-Tetramethyl-hexada-2,6,10,14-tetraen-1-ol] here?
Answer: arthritis ameliorating effects

Question: And the arthritogenicity [1]?
Answer: non arthritogenic

Question: And the “Extra-cellular ROS production (maximal relative luminescence signal)” value (HL-60 cells)?
Answer: strong ROS production

Question: Which results are given for `C/C(=C\CO)CCCC(C)CCCC(C)CCCC(C)C` (stereo not drawn) [compound 1, 3,7,11,15-Tetramethyl-2-hexadecen-1-ol]?
Answer: Oxidative burst / NADPH oxidase capacity in vivo (NADPH oxidase): restores to NADPH oxidase capacity to a level comparable to the level of NADPH oxidase capacity in rats with a functional oxidative burst; Oxidative burst / NADPH oxidase capacity in vivo (NADPH oxidase; listed as Phytol): restores the oxidative burst defect in vivo; fraction remaining as a depot in the injection site ([2]; DA rats, 3H-Phytol injection): > 90%; cellular localisation of staining in lymph nodes ([2]; rat, in vivo): in-between cells or in the cell membrane, i.e. not intracellular; distribution within the draining lymph nodes ([2]; rat, in vivo): distributed primarily to the cortical regions as well as close to the sinusoidal space of the draining lymph nodes; primary tissue for accumulation [2, 9]: draining lymph nodes were the primary tissue for accumulation; time course of distribution to the inguinal lymph nodes [2, 9]: highest accumulation more than one week after injection and showed a decrease after two weeks; severity of PIA, therapeutic effect (DA.Ncf1^DA rats [3]): therapeutic effects; severity of PIA, oral administration in food 500 mg/kg/day (DA.Ncf1^DA rats [3]): reduced the severity of arthritis; severity of PIA, oral administration in food 1% daily (DA.Ncf1^DA rats [3]): reducing the severity of arthritis; adverse effect of the high doses (macroscopic observation, postmortem dissection) (DA.Ncf1^DA rats [3]; oral gavage every second day, both doses): No adverse effect; severity of PIA, oral administration in food, three regimes (DA.Ncf1^DA rats [3]; phytol 1% daily, 1% every 2'nd day, or 1% initiated day 7 after arthritis induction): reduced the severity of arthritis; anti-CII antibody (IgG) levels in serum (DA.Ncf1^DA rats [4]; day 27 after immunization): decreases anti-CII antibody levels in serum; severity of collagen-induced arthritis (DA.Ncf1^DA rats [4]; s.c. administration (200 μl) 5 days before immunization with CII): prevents collagen-induced arthritis; arthritis severity in NOCIA (DA.Ncf1^DA rats [5]; 200 μl s.c. five days prior to induction): reduces arthritis severity; Delayed type hypersensitivity (DTH) response (increase in ear volume) (DA.Ncf1^DA rats [5]; CII challenge in the ear day 67 after NOCIA immunization): abrogated; severity of inflammatory and paralyzing symptoms of EAE (score 0-8) (DA.Ncf1^DA rats [6]): significant difference in severity of inflammatory and paralyzing symptoms of EAE; arthritis ameliorating effects [1]: arthritis ameliorating effects; arthritogenicity [1]: non arthritogenic; severity of PIA, oral gavage (DA.Ncf1^DA rats [7]; both doses, every second day (1.6 and 3.2 mg/kg as printed elsewhere in the source)): potent arthritis ameliorating effect; severity of arthritis, chronic phase of PIA (DA.Ncf1^DA rats [7]; injected i.p. twice (200 μl) starting day 70, three days between treatments): decreases arthritis severity in the chronic phase of arthritis; severity of PIA (arthritis score), preventive (DA.Ncf1^DA rats [7]; injected s.c. day -5 prior to pristane injection): inhibits development of arthritis; cartilage destruction (serum COMP levels) (DA.Ncf1^DA rats [7]; sera taken day 38, treatment from day 22): Cartilage destruction is decreased; severity of arthritis, acute phase of established PIA (DA.Ncf1^DA rats [7]; two injections (200 μl, s.c. or i.p.) with 5 days in between starting day 22): ameliorates disease in the acute phase of arthritis; severity of PIA, preventive, Lewis.IF rat (Lewis.IF rat): arthritis preventing effect; severity of arthritis in rats with a functional oxidative burst [8]: arthritis ameliorating effect; Extra-cellular ROS production (maximal relative luminescence signal) (HL-60 cells): strong ROS production

Question: Which results are given for `CC(C)=CCC/C(C)=C/CC/C(C)=C/CO` [compound 2, 3,7,11-Trimethyl-2,6,10-dodecatrien-1-ol]?
Answer: severity of PIA, therapeutic effect (DA.Ncf1^DA rats [3]): therapeutic effect; arthritis ameliorating effects [1]: arthritis ameliorating effects; arthritogenicity [1]: non arthritogenic; Extra-cellular ROS production (maximal relative luminescence signal) (HL-60 cells): strong ROS production

Question: For `C=CC(C)(O)CCCC(C)CCCC(C)CCCC(C)C` (stereo not drawn) [compound 9, 3,7,11,15-Tetramethyl-1-hexadecen-3-ol], which “severity of PIA, oral administration in food 500 mg/kg/day” value (DA.Ncf1^DA rats [3]) is on record?
Answer: reduced the severity of arthritis

Question: What about the “Extra-cellular ROS production (maximal relative luminescence signal)” value (HL-60 cells) of the same compound?
Answer: strong ROS production

Question: Which “severity of PIA, oral fenofibrate 100 mg/kg/day” value (DA.Ncf1^DA rats [3]; 100 mg/kg/day) does the source give for `CC(C)OC(=O)C(C)(C)Oc1ccc(C(=O)c2ccc(Cl)cc2)cc1` [fenofibrate, propan-2-yl 2-[4-(4-chlorobenzoyl)phenoxy]-2-methyl-propanoate, reference compound] here?
Answer: no effect on the severity of arthritis

Question: For `CC(=O)OC/C=C(\C)CC/C=C(\C)CCC=C(C)C` [compound 4, Acetic acid 3,7,11-trimethyl-dodeca-2,6,10-trienyl ester], which “severity of PIA, therapeutic effect” value (DA.Ncf1^DA rats [3]) is on record?
Answer: therapeutic effect comparable to the therapeutic effect of the un-derivatized compound 2

Question: Which “severity of PIA, therapeutic effect” value (DA.Ncf1^DA rats [3]) does the source give for `CC(C)CCCC(C)CCCC(C)CCCC(C)CCO` (stereo not drawn) [compound 6, 3,7,11,15-Tetramethyl-hexadecan-1-ol] here?
Answer: therapeutic effect comparable to the therapeutic effects of compound 1 and compound 5

Question: With `CC(=O)OCCC(C)CCCC(C)CCCC(C)CCCC(C)C` (stereo not drawn) [compound 7, Acetic acid 3,7,11,15-tetramethyl-hexadecyl ester] as the compound, how does the “severity of PIA, therapeutic effect” value (DA.Ncf1^DA rats [3]) read?
Answer: therapeutic effect comparable to the therapeutic effects of compound 1 and compound 5

Question: Which results are given for `CC(=O)OC/C=C(\C)CCCC(C)CCCC(C)CCCC(C)C` (stereo not drawn) [compound 5, Acetic acid 3,7,11,15-tetra-metyl-hexadec-2-enyl-ester]?
Answer: severity of PIA, therapeutic effect (DA.Ncf1^DA rats [3]): therapeutic effect comparable to the therapeutic effect of the un-derivatized compound 1; also recorded: therapeutic effects; severity of PIA, oral administration in food 1% daily (DA.Ncf1^DA rats [3]): equally effective as oral treatment with compound 1 (phytol) in reducing the severity of arthritis
